Laboratory results taken from ChEMBL document CHEMBL5331045, “Recent advances in β-lactamase inhibitor chemotypes and inhibition modes” (Eur J Med Chem, 2022).

What was measured:
[1] = Binding affinity to beta-lactamase AmpC (unknown origin) assessed as inhibition constant by measuring nitrocefin hydrolysis by spectrometric analysis; set-up: species or system Homo sapiens
[2] = target: Class A carbapenemase KPC-2 (Escherichia coli, UniProt A8DS27); assay: Binding affinity to Escherichia coli KPC-2 assessed as inhibition constant using nitrocefin as substrate by microplate reader analysis
[3] = Binding affinity to Escherichia coli SHV-2 assessed as inhibition constant using nitrocefin as substrate by microplate reader analysis
[4] = Binding affinity to Escherichia coli CTX-M-9 assessed as inhibition constant using nitrocefin as substrate by microplate reader analysis
[5] = target: Beta-lactamase CTX-M-27 (Escherichia coli, UniProt Q840M4); assay: Binding affinity to Escherichia coli CTX-M-27 assessed as inhibition constant using nitrocefin as substrate by microplate reader analysis
[6] = Binding affinity to Escherichia coli CTX-M-15 assessed as inhibition constant using nitrocefin as substrate by microplate reader analysis
[7] = target: Beta-lactamase CTX-M-14 (Escherichia coli, UniProt Q9L5C7); assay: Binding affinity to Escherichia coli CTX-M-14 assessed as inhibition constant using nitrocefin as substrate by microplate reader analysis
[8] = target: Beta-lactamase (Escherichia coli K-12, UniProt P00811); assay: Binding affinity to Escherichia coli AmpC assessed as inhibition constant using nitrocefin as substrate by microplate reader analysis
[9] = target: Beta-lactamase TEM-1 (Escherichia coli, UniProt Q4GY26); assay: Binding affinity to Escherichia coli TEM1 assessed as inhibition constant using nitrocefin as substrate by microplate reader analysis
[10] = Binding affinity to Escherichia coli OXA-48 assessed as inhibition constant using nitrocefin as substrate by microplate reader analysis
[11] = Binding affinity to N289A (unknown origin) assessed as inhibition constant; set-up: species or system Homo sapiens
[12] = Binding affinity to TEM1 (unknown origin) assessed as inhibition constant; set-up: species or system Homo sapiens
[13] = Binding affinity to AmpC (unknown origin) assessed as inhibition constant; set-up: species or system Homo sapiens
[14] = Binding affinity to TEM30 (unknown origin) assessed as inhibition constant; set-up: species or system Homo sapiens
[15] = target: Beta-lactamase (Pseudomonas aeruginosa (strain ATCC 15692 / PAO1 / 1C / PRS 101 / LMG12228), UniProt P24735); assay: Inhibition of Pseudomonas aeruginosa AmpC
[16] = Inhibition of Pseudomonas aeruginosa KPC2
[17] = Inhibition of Pseudomonas aeruginosa OXA-24
[18] = Binding affinity to Acinetobacter derived cephalosporinase 7 (D24-K383 residues) assessed as inhibition constant
[19] = Inhibition of KPC-2 (unknown origin); set-up: species or system Homo sapiens
[20] = test system: Escherichia coli; assay: Antimicrobial activity against Escherichia coli expressing SHV-12 in presence of piperacillin; format: functional
[21] = test system: Escherichia coli; assay: Antimicrobial activity against Escherichia coli expressing CTX-M-15 in presence of piperacillin; format: functional
[22] = test system: Escherichia coli; assay: Antimicrobial activity against Escherichia coli expressing KPC-2 in presence of piperacillin; format: functional
[23] = test system: Escherichia coli; assay: Antimicrobial activity against Escherichia coli expressing TEM1 in presence of piperacillin; format: functional
[24] = test system: Escherichia coli; assay: Antimicrobial activity against Escherichia coli expressing AmpC in presence of piperacillin; format: functional
[25] = test system: Escherichia coli; assay: Antimicrobial activity against Escherichia coli expressing OXA-10 in presence of piperacillin; format: functional
[26] = test system: Escherichia coli; assay: Antimicrobial activity against Escherichia coli expressing DHA-1 in presence of piperacillin; format: functional
[27] = test system: Escherichia coli; assay: Antimicrobial activity against Escherichia coli expressing OXA-23 in presence of piperacillin; format: functional
[28] = test system: Escherichia coli; assay: Antimicrobial activity against Escherichia coli expressing OXA-40 in presence of piperacillin; format: functional
[29] = test system: Escherichia coli; assay: Antimicrobial activity against Escherichia coli expressing OXA-48 in presence of piperacillin; format: functional
[30] = test system: Escherichia coli; assay: Antimicrobial activity against Escherichia coli expressing TEM10 in presence of piperacillin; format: functional
[31] = test system: Escherichia coli; assay: Antimicrobial activity against Escherichia coli expressing CMY-2 in presence of piperacillin; format: functional
[32] = Inhibition of Escherichia coli beta-lactamase CTX-M-15 using nitrocefin as substrate measured after 20 mins
[33] = target: Carbapenem-hydrolyzing beta-lactamase KPC (Klebsiella pneumoniae, UniProt Q9F663); assay: Inhibition of Klebsiella pneumoniae beta-lactamase KPC-2 using nitrocefin as substrate measured after 20 mins
[34] = Inhibition of Klebsiella pneumoniae beta-lactamase CMY-2 using nitrocefin as substrate measured after 20 mins
[35] = Binding affinity to CTX-M-14 (unknown origin) assessed as inhibition constant; set-up: species or system Homo sapiens
[36] = Binding affinity to KPC-2 (unknown origin) assessed as inhibition constant; set-up: species or system Homo sapiens
[37] = Inhibition of Enterobacter SHV-5 incubated for 15 mins
[38] = Inhibition of Enterobacter NDM-1 incubated for 15 mins
[39] = Inhibition of Enterobacter OXA-1 incubated for 15 mins
[40] = Inhibition of Enterobacter CTX-M-15 incubated for 15 mins
[41] = Inhibition of Enterobacter KPC-2 incubated for 15 mins
[42] = Inhibition of Enterobacter IMP-1 incubated for 15 mins
[43] = Inhibition of Enterobacter VIM-2 incubated for 15 mins

Which Ki [1] does the source give for `O=C(Nc1cccc(-c2nnn[nH]2)c1)c1cccc(F)c1` here?
Its Ki is 2800 µM.

Which results are given for `O=C(Nc1cccc(-c2nnn[nH]2)c1)c1cc(C(F)(F)F)cc2[nH]cnc12`?
Ki [2]: 97.3 µM; Ki [3]: 25.8 µM; Ki [4]: 0.089 µM; Ki [5]: 0.28 µM; Ki [6]: 0.25 µM; Ki [7]: 0.085 µM; Ki [8]: 387 µM; Ki [9]: Not Active; Ki [10]: 478 µM

For `O=C(O)/C=C/c1cccc([C@H](NC(=O)Cc2cccs2)B(O)O)c1`, which Ki [11] is on record?
The Ki was 0.003 µM.

And the Ki [12]?
The Ki was 0.106 µM.

What about the Ki [13] of the same molecule?
Its Ki is 0.01 µM.

And the Ki [14]?
Its Ki is 3.8 µM.

Which results are given for `CC1=C[C@H]2CN(C(=O)N2OS(=O)(=O)O)[C@@H]1C(N)=O`?
IC50 [15]: 0.014 µM; IC50 [16]: 0.004 µM; IC50 [17]: 0.19 µM

Which Ki [18] does the source give for `O=C(O)c1cn(CB(O)O)nn1` here?
Its Ki is 6.1 µM.

And the IC50 [19]?
The IC50 was 4.72 µM.

For `C[C@]12CNC(=O)[C@H]1N1C[C@@H](C2)N(OS(=O)(=O)[O-])C1=O.[Na+]`, which MIC [20] is on record?
Its MIC is 4 µg/mL.

What about the MIC [21] of the same molecule?
Its MIC is 4 µg/mL.

And the MIC [22]?
The MIC was 4 µg/mL.

And the MIC [23]?
The MIC was 4 µg/mL.

And the MIC [24]?
The MIC was 4 µg/mL.

And the MIC [25]?
Its MIC is 4 µg/mL.

What about the MIC [26] of the same molecule?
Its MIC is 4 µg/mL.

And the MIC [27]?
Its MIC is 4 µg/mL.

What about the MIC [28] of the same molecule?
Its MIC is 8 µg/mL.

And the MIC [29]?
Its MIC is 4 µg/mL.

And the MIC [30]?
Its MIC is 4 µg/mL.

And the MIC [31]?
Its MIC is 2 µg/mL.

What does the source list for `NS(=O)(=O)C1CC[C@@H]2CN1C(=O)N2OS(=O)(=O)O` (stereo partly drawn)?
IC50 [32]: 0.14 µM; IC50 [33]: 0.044 µM; IC50 [34]: 0.116 µM

With `CC(c1nnn[nH]1)n1cnc2sc3c(c2c1=O)CCCC3` (single isomer, unassigned) as the molecule, how does the Ki [35] read?
Its Ki is 2540 µM.

And the Ki [36]?
The Ki was 195 µM.

What does the source list for `CCC(=O)N[C@H]1Cc2cccc(C(=O)O)c2OB1O` [LEDABORBACTAM]?
IC50 [37]: 0.368 µM; IC50 [38]: 38.1 µM; IC50 [39]: 0.066 µM; IC50 [40]: 0.018 µM; IC50 [41]: 0.08 µM; IC50 [42]: > 100 µM; IC50 [43]: 9.04 µM
